Laboratory results reported in patent publication US20160297830A1, “NOVEL COMPOUNDS USEFUL FOR THE TREATMENT OF BACTERIAL INFECTIOUS DISEASES” (GALAPAGOS NV, priority 2013, published 2016).
Values after ≈ are worked out from the molar mass of the structure shown. Read-outs that look alike come from different tables or passages of the source.

What was measured:
[1] = tested on: S. aureus Sa1 ATCC 13709; test: microbe, parasite or virus in culture; assay type: cell-based; conditions: Staphylococcus aureus
[2] = tested on: S. aureus Sa26 ATCC 25923; test: Antibacterial activity assay (MIC), S. aureus Sa26; assay type: cell-based; conditions: Staphylococcus aureus
[3] = tested on: S. aureus Sa4 NCTC 6571; test: Antibacterial activity assay (MIC), S. aureus Sa4; assay type: cell-based; conditions: Staphylococcus aureus
[4] = tested on: S. aureus Sa2 clinical strain NCIMB 41953, MRSA; test: microbe, parasite or virus in culture; assay type: cell-based; conditions: Staphylococcus aureus, read-out: MIC Sa2
[5] = tested on: H. influenza Hi3 ATCC 31517; test: organism not typed; assay type: cell-based; conditions: read-out: MIC Hi3
[6] = tested on: H. influenza Hi10 clinical strain; test: organism not typed; assay type: cell-based; conditions: read-out: MIC Hi10
[7] = tested on: H. influenza Hi47 clinical strain, Ampicillin Resistant; test: organism not typed; assay type: cell-based; conditions: read-out: MIC Hi47
[8] = tested on: H. influenza Hi106 ATCC 51907; test: organism not typed; assay type: cell-based; conditions: read-out: MIC Hi106
[9] = tested on: E. coli Ec1 ATCC 25922; test: Antibacterial activity assay (MIC), E. coli Ec1; assay type: cell-based; conditions: Escherichia coli
[10] = tested on: E. coli Ec50 efflux pump KO; test: microbe, parasite or virus in culture; assay type: cell-based; conditions: Escherichia coli, read-out: MIC Ec50 efflux pump KO
[11] = tested on: E. coli Ec113 efflux pump KO; test: microbe, parasite or virus in culture; assay type: cell-based; conditions: Escherichia coli, read-out: MIC Ec113 efflux pump KO
[12] = molecular target: DNA Polymerase IIIα (DnaE) from Staphylococcus aureus (Staphylococcus aureus, UniProt Q6GG04); test: biochemical
Sequence of DNA Polymerase IIIα (DnaE) from Staphylococcus aureus (Q6GG04 1-1022): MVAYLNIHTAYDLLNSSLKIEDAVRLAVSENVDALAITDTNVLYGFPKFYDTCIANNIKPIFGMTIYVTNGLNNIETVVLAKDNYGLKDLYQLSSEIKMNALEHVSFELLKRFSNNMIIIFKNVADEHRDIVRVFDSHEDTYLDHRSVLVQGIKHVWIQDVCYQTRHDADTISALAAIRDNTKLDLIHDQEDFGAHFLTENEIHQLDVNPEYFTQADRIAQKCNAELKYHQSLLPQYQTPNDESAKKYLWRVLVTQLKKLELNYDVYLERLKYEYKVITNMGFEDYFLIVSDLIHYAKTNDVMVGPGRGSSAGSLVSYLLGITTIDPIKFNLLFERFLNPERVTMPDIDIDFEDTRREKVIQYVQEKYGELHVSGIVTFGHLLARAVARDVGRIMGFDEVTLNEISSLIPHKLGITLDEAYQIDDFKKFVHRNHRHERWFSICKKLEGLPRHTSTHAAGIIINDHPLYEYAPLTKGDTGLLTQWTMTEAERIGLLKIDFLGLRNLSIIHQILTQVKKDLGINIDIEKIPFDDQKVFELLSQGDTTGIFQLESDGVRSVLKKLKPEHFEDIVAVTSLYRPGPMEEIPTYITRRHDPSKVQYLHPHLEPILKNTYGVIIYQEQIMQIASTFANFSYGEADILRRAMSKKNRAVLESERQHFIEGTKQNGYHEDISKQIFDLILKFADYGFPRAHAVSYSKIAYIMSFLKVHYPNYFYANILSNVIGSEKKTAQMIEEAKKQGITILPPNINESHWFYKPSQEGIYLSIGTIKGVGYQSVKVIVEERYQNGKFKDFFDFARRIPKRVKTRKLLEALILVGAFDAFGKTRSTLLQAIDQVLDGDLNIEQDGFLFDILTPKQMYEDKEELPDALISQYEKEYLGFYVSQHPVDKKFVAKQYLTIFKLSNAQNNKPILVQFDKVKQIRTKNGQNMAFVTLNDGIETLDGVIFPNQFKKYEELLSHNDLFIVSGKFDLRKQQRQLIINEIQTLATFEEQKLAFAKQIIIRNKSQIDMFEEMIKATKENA

[13] = molecular target: DNA III Polymerase E (Escherichia coli, UniProt P10443); test: In vitro activity against DNA III Polymerase E, E. coli; assay type: biochemical
Sequence of DNA III Polymerase E (P10443 whole entry): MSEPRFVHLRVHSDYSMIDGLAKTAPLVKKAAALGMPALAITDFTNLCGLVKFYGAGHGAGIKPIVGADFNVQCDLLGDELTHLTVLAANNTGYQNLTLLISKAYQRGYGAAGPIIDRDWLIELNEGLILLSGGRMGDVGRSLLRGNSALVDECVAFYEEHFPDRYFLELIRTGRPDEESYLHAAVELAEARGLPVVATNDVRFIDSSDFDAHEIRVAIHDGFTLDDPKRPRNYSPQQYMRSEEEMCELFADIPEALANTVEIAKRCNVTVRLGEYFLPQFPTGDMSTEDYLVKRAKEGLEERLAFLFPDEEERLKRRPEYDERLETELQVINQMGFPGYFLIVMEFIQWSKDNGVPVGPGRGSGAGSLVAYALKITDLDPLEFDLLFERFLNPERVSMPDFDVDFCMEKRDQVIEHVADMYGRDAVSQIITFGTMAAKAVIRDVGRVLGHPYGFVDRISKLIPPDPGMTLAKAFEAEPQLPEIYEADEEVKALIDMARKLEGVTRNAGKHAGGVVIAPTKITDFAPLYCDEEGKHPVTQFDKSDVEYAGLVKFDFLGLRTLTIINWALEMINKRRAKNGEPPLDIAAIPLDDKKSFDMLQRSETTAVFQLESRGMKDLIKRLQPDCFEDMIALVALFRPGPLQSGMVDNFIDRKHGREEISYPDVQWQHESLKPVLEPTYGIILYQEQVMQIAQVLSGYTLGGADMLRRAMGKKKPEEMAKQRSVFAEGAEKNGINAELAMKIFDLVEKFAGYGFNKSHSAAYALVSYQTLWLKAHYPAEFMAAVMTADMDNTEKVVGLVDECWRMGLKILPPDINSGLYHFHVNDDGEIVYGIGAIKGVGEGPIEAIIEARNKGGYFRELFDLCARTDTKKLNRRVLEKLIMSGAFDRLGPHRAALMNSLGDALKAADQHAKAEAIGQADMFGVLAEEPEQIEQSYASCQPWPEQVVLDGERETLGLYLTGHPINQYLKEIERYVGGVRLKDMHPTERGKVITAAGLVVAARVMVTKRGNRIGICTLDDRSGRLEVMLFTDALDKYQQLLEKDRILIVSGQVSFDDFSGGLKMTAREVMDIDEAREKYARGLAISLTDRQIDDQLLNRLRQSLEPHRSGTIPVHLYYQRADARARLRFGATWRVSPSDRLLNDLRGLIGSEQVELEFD
Experimental: A radioactive filterplate assay was used to assess inhibitory activity of compounds on DNA Polymerase IIIα. Five μL of a dilution series of compound, starting from 100 μM highest concentration, 1/5 dilution, was added to the wells of a 96 well plate. Recombinant enzyme was diluted to 0.47 μg/mL in a buffer containing 20 mM Tris pH7.5, 8 mM DTT, 10 mM MgOAc, 0.05% CHAPS and 10 μL thereof was added to the compound dilutions. The reaction was started with the addition of 10 μL substrate in the same buffer, containing activated calf thymus DNA (Sigma, D4522), dATP, dGTP, dCTP, dTTP (Invitrogen) and [α-33P]-dTTP (Perkin Elmer, NEG605H001) at a concentration of 62.5 μg/mL, 50 nM and 7.5 μCi/mL respectively. The mixture was incubated at 30° C. for 120 minutes and terminated by addition of phosphoric acid. Samples were transferred to filter plates and incorporated radioactivity was measured by the Topcount. Data were converted to percent inhibition with respect to positive and negative controls. IC50 values were calculated using Graph Prism™ software.

[14] = ATCC13709, S. aureus Sa1 ATCC 13709, sensitive strain, Mueller-Hinton Broth, 37° C., read-out: MIC Sa1
[15] = ATCC25923, read-out: MIC Sa26 + 10% SH, S. aureus Sa26 + 10% SH
[16] = ATCC25923, read-out: MIC Sa26 + 50% SH, S. aureus Sa26 + 50% SH
[17] = ATCC25923, S. aureus Sa26 ATCC 25923, sensitive strain, Mueller-Hinton Broth, 37° C., read-out: MIC Sa26
[18] = NCTC6571, S. aureus Sa4 NCTC 6571, sensitive strain, read-out: MIC Sa4
[19] = ATCC25922, E. coli Ec1 ATCC 25922, sensitive strain, read-out: MIC Ec1
[20] = DNA polymerase III, E. coli, read-out: IC50 semiquantitative scoring, E. coli
[21] = ATCC25923, read-out: MIC Sa26 + 10% SH
[22] = ATCC25923, read-out: MIC Sa26 + 50% SH

SMILES	MIC [1, 14] [µg/mL]	MIC [2, 15] [µg/mL]	MIC [2, 16] [µg/mL]	MIC [2, 17] [µg/mL]	MIC [3, 18] [µg/mL]	MIC [4] [µg/mL]	MIC [5] [µg/mL]	MIC [6] [µg/mL]	MIC [7] [µg/mL]	MIC [8] [µg/mL]	MIC [10] [µg/mL]	MIC [11] [µg/mL]	IC50 [12] [nM]	IC50 [13, 20] [nM]	MIC ([1]; ATCC13709, read-out: MIC Sa1) [µg/mL]	MIC ([2]; ATCC25923, read-out: MIC Sa26) [µg/mL]	MIC [2, 21] [µg/mL]	MIC [2, 22] [µg/mL]	MIC ([3]; NCTC6571, read-out: MIC Sa4) [µg/mL]	MIC ([9]; ATCC25922, read-out: MIC Ec1) [µg/mL]	further results
COCC(=NO)[C@H]1OC(=O)[C@H](COC)[C@H]2C=C[C@H]3[C@H]4O[C@]2(/C(C)=C/[C@H]1C)[C@@H]3[C@H](O)[C@@H](COC)[C@H]4OC(=O)c1cc(F)c[nH]1 [Compound 40, 18-Deoxy-18-oximino-8-O-4-Fluoro-1H-pyrrole-2′-carbonylbranimycin]	0.25 (≈ 0.412 µM)	1	1	1 (≈ 1.65 µM)	0.12 (≈ 0.198 µM)	0.25 (≈ 0.412 µM)	> 64	64 (≈ 105 µM)	> 64	> 64	16 (≈ 26.4 µM)	0.25 (≈ 0.412 µM)	1.65 to 1650	1.65 to 1650	–	–	–	–	–	–	MIC [9, 19]: > 64 µg/mL
CO[C@H]1C[C@H]2C=C[C@H]3[C@H]4O[C@]2(/C(C)=C/[C@@H](C)[C@@H]([C@@H](C)O)OC1=O)[C@@H]3[C@H](O)[C@@H](C)[C@H]4O [Nodusmicin, reference compound]	–	–	–	–	–	> 64	64 (≈ 151 µM)	64 (≈ 151 µM)	32 (≈ 75.7 µM)	64 (≈ 151 µM)	1 (≈ 2.37 µM)	0.25 (≈ 0.592 µM)	2.37 to 2370	2370 to 23700	> 64	> 64	> 64	> 64	> 64	> 64	–
COC[C@@H]1[C@@H](O)[C@@H]2[C@H]3C=C[C@@H]4[C@@H](COC)C(=O)O[C@H]([C@H](O)COC)[C@H](C)/C=C(\C)[C@@]24O[C@H]3[C@@H]1OC(=O)c1cc(C)c[nH]1 [Compound 12, 8-O-4-Methyl-1H-pyrrole-2′-carbonylbranimycin]	–	–	–	–	–	4 (≈ 6.78 µM)	> 64	> 64	64 (≈ 109 µM)	64 (≈ 109 µM)	> 64	2 (≈ 3.39 µM)	1.7 to 1700	> 17000	8 (≈ 13.6 µM)	16 (≈ 27.1 µM)	8	16	8 (≈ 13.6 µM)	> 64	–
COC[C@@H]1[C@@H](O)[C@@H]2[C@H]3C=C[C@@H]4[C@@H](COC)C(=O)O[C@H]([C@H](O)COC)[C@H](C)/C=C(\C)[C@@]24O[C@H]3[C@@H]1OC(=O)c1ccc(C)[nH]1 [Compound 6, 8-O-5-Methyl-1H-pyrrole-2′-carbonylbranimycin]	–	–	–	–	–	64 (≈ 109 µM)	> 64	> 64	> 64	> 64	–	8 (≈ 13.6 µM)	1.7 to 1700	> 17000	> 64	> 64	> 64	> 64	> 64	> 64	–
COC[C@@H]1[C@@H](O)[C@@H]2[C@H]3CC[C@@H]4[C@@H](COC)C(=O)O[C@H]([C@H](O)COC)[C@H](C)/C=C(\C)[C@@]24O[C@H]3[C@@H]1OC(=O)c1ccc[nH]1 [Compound 16, 4,5-Dihydro-8-O-1H-pyrrole-2′-carbonylbranimycin]	–	–	–	–	–	4 (≈ 6.92 µM)	> 64	> 64	> 64	> 64	> 64	4 (≈ 6.92 µM)	1.73 to 1730	> 17300	8 (≈ 13.8 µM)	8 (≈ 13.8 µM)	8	8	4 (≈ 6.92 µM)	> 64	–
COC[C@@H](O)[C@H]1OC(=O)[C@H](COC)[C@H]2C=C[C@H]3[C@H]4O[C@]2(/C(C)=C/[C@H]1C)[C@@H]3[C@H](O)[C@@H](C)[C@H]4OC(=O)c1cc(F)c[nH]1 [Compound 23, 8-O-4-Fluoro-1H-pyrrole-2′-carbonylbaleomycin]	–	–	–	–	–	4 (≈ 7.1 µM)	> 64	64 (≈ 114 µM)	64 (≈ 114 µM)	64 (≈ 114 µM)	–	0.12 (≈ 0.213 µM)	1.77 to 1770	1770 to 17700	1 (≈ 1.77 µM)	1 (≈ 1.77 µM)	2	4	1 (≈ 1.77 µM)	> 64	–
COC[C@@H]1[C@@H](O)[C@@H]2[C@H]3C=C[C@@H]4[C@@H](COC)C(=O)O[C@H]([C@H](O)COC)[C@H](C)/C=C(\C)[C@@]24O[C@H]3[C@@H]1OC(=O)c1ccoc1 [Compound 5, 8-O-Furane-3′-carbonylbranimycin]	2 (≈ 3.47 µM)	2	4	4 (≈ 6.94 µM)	2 (≈ 3.47 µM)	2 (≈ 3.47 µM)	> 64	> 64	> 64	> 64	> 64	–	–	> 17300	–	–	–	–	–	–	MIC [9, 19]: > 64 µg/mL; IC50 ([12]; DNA polymerase III, S. aureus, read-out: IC50 semiquantitative scoring, S. aureus): 1.73 to 1730 nM
COCC[C@H]1OC(=O)[C@H](COC)[C@H]2C=C[C@H]3[C@H]4O[C@]2(/C(C)=C/[C@H]1C)[C@@H]3[C@H](O)[C@@H](COC)[C@H]4OC(=O)c1ccc[nH]1 [Compound 4, 17-Deoxy-8-O-1H-pyrrole-2′-carbonylbranimycin]	4 (≈ 7.15 µM)	4	8	4 (≈ 7.15 µM)	2 (≈ 3.57 µM)	4 (≈ 7.15 µM)	> 64	> 64	–	–	> 64	4 (≈ 7.15 µM)	1.79 to 1790	–	–	–	–	–	–	–	MIC [9, 19]: > 64 µg/mL; IC50 [13]: > 17900 nM
